Values of other authors as cited in patent US20220193127A1, “IMMUNOTHERAPY FOR OPIOID ADDICTION” (Therapeutic Solutions International, Inc., priority 2020, published 2022).

Tests used:
[1] = tested on: dentate gyrus of the hippocampus
microglial cells = details: for development of neuropathic pain: in vivo; for microglial activation / proinflammatory cytokines: neuropathic pain
[2] = rats fed for 6 weeks with liquid diet containing moderate doses of ethanol, vs paired controls

Structure (SMILES) | neurogenesis within the olfactory bulb ([1]; rat model of alcoholism) | decrease in the number of new neurons in the dentate gyrus [1, 2] [%] | increase in cell death in the dentate gyrus [1, 2] | development of neuropathic pain (microglial cells) | microglial activation (microglial cells) | proinflammatory cytokines (microglial cells)
CCO [ethanol] | not affected | 66.3 | 227-279% | – | – | –
O=C(O)CC(O)(C(=O)O)C(F)C(=O)O (stereo not drawn) [fluorocitrate] | – | – | – | suppressing | decrease | inhibit
CC(=O)CCCCn1c(=O)c2c(ncn2C)n(C)c1=O [pentoxifylline] | – | – | – | suppressing | decrease | inhibit
CCCn1cnc2c1c(=O)n(CCCCC(C)=O)c(=O)n2C [propentofylline] | – | – | – | suppressing | decrease | inhibit
